Where two headings read alike, the source gives them in different places.
Experiments:
blood sugar level = experiment: Blood sugar in patients (Example 23); assay type: in vivo, human; details: patients suffering from glycosuria
Protocol: Three patients shown in Table 17 were treated by oral administration of a daily dose of 4 to 6 micrograms of 24R,25-(OH)2 -D3 in a form of the soft capsule composition obtained in Example 6 for 3 continuous weeks. After the completion of administration, the patient was fasted for a night and their blood specimen was collected at 11:00 a.m. in the next morning.
Effectiveness of reducing blood sugar level (ERBS) is calculated from the […]

[1] = 30-day repeated oral administration toxicity (Example 26); assay type: in vivo, ICR mouse; details: 1 mg/kg/day, 30 days
Protocol: 24R,25-(OH)2 -D3 was dissolved in Panacete® 810 containing 1% by weight of ethanol, and the solution was forcibly p.o. administered once a day for 30 continuous days to each male or female ICR mouse of the groups shown in Table 20 at each one of the daily dose rates also shown in Table 20.
As the control, Panacete 810 was solely and forcibly p.o. administered to the mice of the same strain once a day for 30 continuous days.

tumour = experiment: Anti-tumour experiments using mouse and rat as the host; assay type: in vivo
calcium level in serum [2] = details: healthy dog, continuous injection 20 min into thyroid artery; cited from earlier work
calcium level in serum [3] = details: dog with hyper-parathyreosis, thyroid arterial route; cited from earlier work
calcium level in serum [4] = details: normal person, 250 micrograms oral; cited from earlier work
calcium level in serum [5] = details: patients suffering from hypocalcemia; cited from earlier work
magnesium level in serum [6] = details: thyroidectomized and parathyroidectomized rats, administered once; cited from earlier work
magnesium level in serum [7] = details: bilateral nephrectomy rats; cited from earlier work

For `C=C1CC[C@H](O)C/C1=C/C=C1\CCC[C@]2(C)[C@@H]([C@H](C)CCC(O)C(C)(C)O)CC[C@@H]12` (stereo partly shown) [24,25-(OH)2 -D3, 24,25-dihydroxycholecalciferol], the blood sugar level (blood sugar level) was “significant reduction of the blood sugar level was observed”, the “biochemical examination of the blood and autopsy” value [1] was “any significant abnormal findings were not observed” and the “anti-tumour effect in vivo” value (tumour) was “anti-tumour effect of the compound was confirmed”. For the same compound, the “Calcium level in serum” value (calcium level in serum [2]) was “showed a temporary reduction”, the “Calcium level in serum” value (calcium level in serum [3]) was “did not change the dog's calcium level in serum” and the “Calcium level in serum” value (calcium level in serum [4]) was “did not cause the significant change of calcium level”. For the same compound, the “Calcium level in serum” value (calcium level in serum [5]) was “non of them reported the case where the calcium level in the patient's serum showed a significant change”, the magnesium clearance (magnesium level in serum [6]) was “did not affect the magnesium level in serum thereof and the magnesium clearance thereof” and the “magnesium level in serum” value (magnesium level in serum [6]) was “did not affect the magnesium level in serum”. For the same compound, the “magnesium level in serum” value (magnesium level in serum [7]) was “did not affect significantly the magnesium level in serum”.

Source: patent publication US4442093A, “Method for administering 24,25-dihydroxycholecalciferol to persons suffering from hypercalcemia” (Kureha Kagaku Kogyo Kabushiki Kaisha, priority 1981, dated 1984)
